Laboratory results: US20020115613A1, “Treatment of prostate cancer” (priority 2001, published 2002)
* marks the point of attachment. Cbz = O=C(OCc1ccccc1)*; CH2F = FC*

What was measured:
LNCaP C4-2 cells = test: Western blotting of death receptors, caspases, Bid, cytochrome c, Akt; type: cell-based; conditions: LNCaP C4-2 treated with TRAIL and/or Mifepristone; inhibitor pre-treatment one hr; FIG. 7
Method: (§1) LNCaP were obtained from American Type Culture Collection (Rockville, Md.) and LNCaP C4-2 cells were purchased from Urocor Inc., Oklahoma City, Okla. Cells were grown in RPMI 1640 medium supplemented with 10% (LNCaP) or 5% (LNCaP C4-2) fetal bovine serum (Hyclone, Logan, Utah) and grown in the presence of 5% CO2 at 37° C. Cells were treated with 10 μM Mifepristone (Sigma, St. Louis, Mo.) for three days or with increasing concentrations (from 200 ng/ml to 600 ng/ml) of TRAIL (Biomol Research Laboratories, Inc., Plymouth Meetings, Pa.) for varying time intervals 2, 4, 6, 8, 16, 20 and 24 hours (hr). Thus, for treatment with Mifepristone, cells were treated with Mifepristone for three days and then some cells treated (without washing) with TRAIL for indicated periods. Upon completion of the experiment, cells were harvested, and total proteins, cytosol or mitochondrial fractions were isolated as described below. At least three experiments were conducted with a minimum of four plates per treatment per experiment.
(§2) For experiments using inhibitors, the cells were pre-treated with increasing concentrations of the inhibitors (10 μM to 100 μM) for one hr and then with TRAIL. Caspase-8-specific (Z-IETD-FMK) and caspase-9-specific ([…]) inhibitors were purchased from Enzyme Systems Products, Livermore, Calif. The inhibitors were dissolved in DMSO; to limit cellular toxicity, care was taken not to exceed 0.2% DMSO in the culture medium. Appropriate controls included vehicle treated cells with or without the inhibitors.
(§3) Cells were harvested by trypsinization, washed in 1×PBS and cell pellets resuspended in lysis buffer (100 mM Tris-HCl pH 8.0, 0.1% Triton X 100 and protease inhibitor cocktail from Roche Diagnostic Corporation, Indianapolis, Ind.). Cells were incubated over ice for 30 min and centrifuged at 10,000 g at 4° C. for 10 min. The supernatant was collected and the protein concentration estimated using Bio-Rad protein reagent (Bio-Rad Laboratories, Hercules, Calif.).
(§4) Proteins (50 μg, unless stated otherwise) were separated on NuPAGE 10% Bis-Tris gels (Novex pre-cast mini gels, InVitrogen, Carlsbad, Calif.) at 100 volts for 1 hour in the presence of 1×MES-SDS running buffer (InVitrogen, Carlsbad, Calif.). Separated proteins were transferred to (PVDF) membranes (Bio-Rad Laboratories, Hercules, Calif.) at 42 volts for 2.5 hr using a Novex XCell II blotting apparatus in MES transfer buffer in the presence of NuPAGE antioxidant. Transfer of the proteins to the polyvinylidene difluoride (PVDF) membrane was confirmed by staining with Ponceau S (Sigma, St. Louis, Mo.). The blots were blocked in 5% non-fat dry milk in TBS, washed twice for 10 min each with TBS containing 0.1% Tween-20 and incubated for 2 hr at RT with primary antibody diluted in TBS containing 0.5% milk.
(§5) The following antibodies were used in the immunoblots: DR4, DR5 and cytochrome c (Imgenex, San Diego, Calif.), BID (BioSource International, Camarillo, Calif.), caspases-8, -9, and Akt (Cell Signaling Technology, Beverely, Mass.), caspase-3 (BD Pharmingen, San Diego, Calif.) Iκβ and XIAP (Cell Signaling Technology, Beverly, Mass.), cFLIP (StressGen Biotechnology Corp, Victoria, Canada), actin (Sigma Chemical Co., St. Louis, Mo.) and Cox II (Molecular Probes, Eugene, Oreg.). Immunoreactive bands were visualized using ECL detection system (Amersham, Pharmacia Biotech, Arlington Heights, Ill.) and signals were developed after exposure to X-ray film (X-Omat films, Eastman Kodak Company, Rochester, N.Y.).
(§6) For separation of mitochondrial and cytosolic fractions, cells were trypsinized, centrifuged at 600 g for 10 min at 4° C., washed twice in ice-cold PBS and re-suspended in buffer A (20 mM HEPES-KOH, pH 7.2, 10 mM KCl, 1.5 mM MgC12, 1 mM sodium-EDTA, 1 mM sodium-EGTA, 250 mM sucrose and protease inhibitor cocktail). Cells were homogenized on ice with a glass Dounce homogenizer (30 strokes) and were centrifuged at 750 g for 5 min at 4° C. […]

LNCaP cells = test: as above; type: cell-based; conditions: LNCaP treated with TRAIL and/or Mifepristone; inhibitor pre-treatment one hr; FIG. 7
Method: as §1, §2, §3, §4, §5, §6

prostate cancer cells = conditions: cited from earlier work
PC3AR cells = test: Induction of apoptosis / cell survival (FIG. 1E, 6A); type: cell-based; conditions: 5 μM hydroxyflutamide for 5 days, then 400 ng/ml TRAIL, FIG. 1E
Method: PC3AR cells are a clonal cell line derived by stable transfection of PC3 with a full-length human AR cDNA (Dai, J. L., et al., Steroids, 61, 531-539, 1996). PC3Neo cells were stably transfected with neomycin vector alone. Cells were grown in RPMI 1640 with 5% FBS (Hyclone, Logan, Utah), 100 units/ml penicillin, 100 μg/ml streptomycin, 0.25 μg/ml fungizone and G418 (350 μg/ml) to select for neomycin-resistant cells. In experiments using antiandrogens, cells were maintained in 5% DCC stripped serum for at least 48 hr before treatment with hydroxyflutamide (Sigma Chemical Co., St. Louis, Mo.). The medium and all the drugs were replaced every two days. Cells were treated with 200 ng/ml, 400 ng/ml or 600 ng/ml of TRAIL (Biomol Research Laboratories, Inc, Plymouth Meeting, Pa.) for 2, 4, 6, 8, 16 and 20 hr. Cells were treated with 5 μM hydroxyflutamide for 5 days before the commencement of treatment with 400 ng/ml TRAIL.
Two methods were used to measure induction of apoptosis by drug treatment: the MTT assay and the Apoptosense assay. The MTT assay measures mitochondrial enzyme activity and is indicative of the number of surviving cells. The Apoptosense assay is an ELISA, which utilizes M30 antibody to recognize the C-terminal domain (amino acids 387-396) of cytokeratin 18 that is exposed in apoptotic cells after cleavage by caspases.
Cells were seeded in 96-well plates (6000 cells/well) and treatment was started 24 hr after seeding the cells. After completion of the treatment, cells were incubated at 37° C. with the MTT reagent for 3 hr and processed according to manufacturers instructions (Promega Corporation, Madison, Wis.). Color development was measured at 490 nm on a Spectra MAX 340 microplate reader (Molecular Devices, Menlo Park, Calif.).

| Molecule | caspase-8 activation in presence of caspase inhibitor (LNCaP C4-2 cells) | tBid in presence of caspase inhibitor (LNCaP C4-2 cells) | caspase-8 activation in presence of caspase inhibitor (LNCaP cells) | tBid in presence of caspase inhibitor (LNCaP cells) | ability to induce apoptosis in prostate cancer cells (Sridhar et al., 2001) (prostate cancer cells) | caspase-3 activation in presence of caspase inhibitor (LNCaP C4-2 cells) | caspase-7 activation in presence of caspase inhibitor (LNCaP C4-2 cells) | caspase-3 activation in presence of caspase inhibitor (LNCaP cells) | caspase-7 activation in presence of caspase inhibitor (LNCaP cells) | effect of anti-androgen pre-treatment on response to TRAIL (PC3AR cells) |
| --- | --- | --- | --- | --- | --- | --- | --- | --- | --- | --- |
| Cbz-IETD-CH2F | blocked activation of caspase-8 | tBid was not present | blocked activation of caspase-8 | tBid was not present | – | – | – | – | – | – |
| CC/C(=C(\c1ccccc1)c1ccc(OCCN(C)C)cc1)c1ccccc1 [Tamoxifen] | – | – | – | – | marginal ability to induce apoptosis | – | – | – | – | – |
| Cbz-LEHD-CH2F | did not affect caspase-8 activity | significantly reduced the levels of tBid | did not affect caspase-8 activity | significantly reduced the levels of tBid | – | reduced caspase-3 activity | blocked activation of caspase-7 | reduced caspase-3 activity | blocked activation of caspase-7 | – |
| CC(C)(O)C(=O)Nc1ccc([N+](=O)[O-])c(C(F)(F)F)c1 [hydroxyflutamide, reference compound] | – | – | – | – | – | – | – | – | – | did not alter their response to TRAIL |
